# Experimental data from PubChem BioAssay AID248 (DTP/NCI, 2004).
# Where “and” joins values, the source holds several entries; their conditions need not be identical. Equal entries are not always repeated. Toxic doses and inconclusive results are not listed.
# System: L1210 leukemia ip in BDF1 mice, survival T/C
# Assay: NCI In Vivo Anticancer Drug Screen. Data for tumor model L1210 Leukemia (intraperitoneal) in B6D2F1 (BDF1) mice
# Settings: endpoint: mean survival time, higher = longer survival
# Procedure, shortened: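 Transplantable tumor model; survival measured in treated vs vehicle control mice. Value = treated/control.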
# [1] = dose: 100.0 mg/kg/injection, schedule: Q01DX001 (ip), vehicle: carboxymethylcellulose (CMC)
# [2] = dose: 100.0 mg/kg/injection, schedule: Q01DX009 (ip), vehicle: Klucel (hydroxypropylcellulose) (HPC)
# [3] = dose: 100.0 mg/kg/injection, schedule: Q04DX002 (ip), vehicle: Klucel (hydroxypropylcellulose) (HPC)
# [4] = dose: 200.0 mg/kg/injection, schedule: Q01DX001 (ip), vehicle: carboxymethylcellulose (CMC)
# [5] = dose: 200.0 mg/kg/injection, schedule: Q01DX009 (ip), vehicle: Klucel (hydroxypropylcellulose) (HPC)
# [6] = dose: 200.0 mg/kg/injection, schedule: Q04DX002 (ip), vehicle: Klucel (hydroxypropylcellulose) (HPC)
# [7] = dose: 400.0 mg/kg/injection, schedule: Q01DX001 (ip), vehicle: carboxymethylcellulose (CMC)
# [8] = dose: 100.0 mg/kg/injection, schedule: Q04DX003 (ip), vehicle: Klucel (hydroxypropylcellulose) (HPC)
# [9] = dose: 200.0 mg/kg/injection, schedule: Q04DX003 (ip), vehicle: Klucel (hydroxypropylcellulose) (HPC)
# [10] = dose: 400.0 mg/kg/injection, schedule: Q01DX009 (ip), vehicle: Klucel (hydroxypropylcellulose) (HPC)
# [11] = dose: 400.0 mg/kg/injection, schedule: Q04DX003 (ip), vehicle: Klucel (hydroxypropylcellulose) (HPC)
# [12] = dose: 100.0 mg/kg/injection, schedule: Q04DX003 (ip), vehicle: saline with Tween-80
# [13] = dose: 200.0 mg/kg/injection, schedule: Q04DX003 (ip), vehicle: saline with Tween-80
# [14] = dose: 400.0 mg/kg/injection, schedule: Q04DX003 (ip), vehicle: saline with Tween-80
# [15] = dose: 100.0 mg/kg/injection, schedule: Q01DX001 (ip), vehicle: Klucel (hydroxypropylcellulose) (HPC)
# [16] = dose: 200.0 mg/kg/injection, schedule: Q01DX001 (ip), vehicle: Klucel (hydroxypropylcellulose) (HPC)
# [17] = dose: 400.0 mg/kg/injection, schedule: Q01DX001 (ip), vehicle: Klucel (hydroxypropylcellulose) (HPC)
# [18] = dose: 100.0 mg/kg/injection, schedule: Q01DX009 (ip), vehicle: saline
# [19] = dose: 200.0 mg/kg/injection, schedule: Q01DX009 (ip), vehicle: saline
# [20] = dose: 400.0 mg/kg/injection, schedule: Q01DX009 (ip), vehicle: saline
# [21] = dose: 100.0 mg/kg/injection, schedule: Q04DX003 (ip), vehicle: saline
# [22] = dose: 100.0 mg/kg/injection, schedule: Q01DX001 (ip), vehicle: saline
# [23] = dose: 200.0 mg/kg/injection, schedule: Q01DX001 (ip), vehicle: saline
# [24] = dose: 400.0 mg/kg/injection, schedule: Q01DX001 (ip), vehicle: saline
smiles,measurement,setting,value
CCc1ccc(NC(=O)NCCCl)cc1,T/C,"dose: 50.0 mg/kg/injection, schedule: Q01DX009 (ip), vehicle: Klucel (hydroxypropylcellulose) (HPC)",89 % of control
same,T/C,[1],87 % of control
same,T/C,[2],89 % of control
same,T/C,[3],105 % of control
same,T/C,[4],106 % of control
same,T/C,[5],92 % of control
same,T/C,[6],113 % of control
same,T/C,[7],106 % of control
CCOc1ccccc1NC(=O)Nc1ccccc1OC,T/C,[2],103 % of control
same,T/C,[8],103 % of control
same,T/C,[5],98 % of control
same,T/C,[9],96 % of control
same,T/C,[10],98 % of control
same,T/C,[11],100 % of control
C1CCC(N2OC23CCCCC3)CC1 (stereo unspecified),T/C,[1],92 % of control
same,T/C,[4],90 % of control
same,T/C,[7],92 % of control
CCOc1cc(-c2nc3ccccc3s2)ccc1O,T/C,[12],96 % of control
same,T/C,[13],101 % of control
same,T/C,[14],96 % of control
CCOC(=O)Nc1cccc2ccccc12,T/C,[8],101 % of control
same,T/C,[9],97 % of control
same,T/C,[11],98 % of control
O=C(/C=C/c1ccccc1)c1ccccc1,T/C,[15],98 % of control
same,T/C,[3],105 % of control
same,T/C,[8],100 % of control
same,T/C,[16],99 % of control
same,T/C,[6],105 % of control
same,T/C,[9],104 % of control
same,T/C,[17],94 % of control
same,T/C,"dose: 400.0 mg/kg/injection, schedule: Q04DX002 (ip), vehicle: Klucel (hydroxypropylcellulose) (HPC)",94 % of control
same,T/C,[11],98 % of control
Nc1cc2oc3ccccc3c2c2cccnc12,T/C,[15],103 % of control
same,T/C,[8],106 % of control
same,T/C,[16],100 % of control
same,T/C,[9],103 % of control
same,T/C,[17],91 % of control
same,T/C,[11],103 % of control
O=C(OCC#CCOC(=O)C(Cl)Cl)C(Cl)Cl,T/C,[18],107 % of control
same,T/C,[19],91 % of control
same,T/C,[20],94 % of control
O=c1[nH]nc(-c2ccc(Cl)cc2Cl)s1,T/C,[8],95 % of control
same,T/C,[9],101 % of control
same,T/C,[11],112 % of control
CC1(C)C2C=CC1C(CO)(CO)C2 (stereo unspecified),T/C,[18],105 % of control
same,T/C,[21],103 % of control
same,T/C,[19],97 % of control
same,T/C,"dose: 200.0 mg/kg/injection, schedule: Q04DX003 (ip), vehicle: saline",92 % of control
same,T/C,[20],100 % of control
same,T/C,"dose: 400.0 mg/kg/injection, schedule: Q04DX003 (ip), vehicle: saline",109 % of control
CC(C)(C)C(=O)CC(c1ccccc1)c1ccccc1,T/C,"dose: 50.0 mg/kg/injection, schedule: Q01DX001 (ip), vehicle: other",102 % of control
same,T/C,"dose: 100.0 mg/kg/injection, schedule: Q01DX001 (ip), vehicle: other",98 % of control
same,T/C,"dose: 200.0 mg/kg/injection, schedule: Q01DX001 (ip), vehicle: other",98 % of control
same,T/C,"dose: 400.0 mg/kg/injection, schedule: Q01DX001 (ip), vehicle: other",98 % of control
CCOC(=O)C(=CNc1cccc2ccncc12)C(=O)OCC,T/C,[12],104 % of control
same,T/C,[13],95 % of control
same,T/C,[14],117 % of control
O=c1c(Cl)c(C(Cl)(Cl)Cl)c2ccccc2n1O,T/C,[8],101 % of control
same,T/C,[9],86 % of control
O=C(C[n+]1ccccc1Cc1ccccc1)c1ccccc1,T/C,[12],94 % of control
same,T/C,[21],102 % of control
CCOC(CN(Cc1ccc(OCc2ccccc2)c(OC)c1)S(=O)(=O)c1ccc(C)cc1)OCC,T/C,"dose: 25.0 mg/kg/injection, schedule: Q01DX009 (ip), vehicle: water",102 % of control
same,T/C,"dose: 50.0 mg/kg/injection, schedule: Q01DX009 (ip), vehicle: water",91 % of control
same,T/C,"dose: 100.0 mg/kg/injection, schedule: Q01DX009 (ip), vehicle: water",105 % of control
same,T/C,"dose: 200.0 mg/kg/injection, schedule: Q01DX009 (ip), vehicle: water",102 % of control
same,T/C,"dose: 400.0 mg/kg/injection, schedule: Q01DX009 (ip), vehicle: water",100 % of control
COc1cccc(CNc2ccc(SC)cc2)c1OC,T/C,[2],97 % of control
same,T/C,[8],94 % of control
same,T/C,[5],105 % of control
same,T/C,[9],91 % of control
same,T/C,[10],94 % of control
same,T/C,[11],91 % of control
O=c1cc(-c2ccccc2Br)[nH]c2ccccc12,T/C,[22],96 % of control
same,T/C,[23],100 % of control
same,T/C,[24],96 % of control
CC1CN=C(c2ccc(NC(=O)c3cccc(C(=O)Nc4ccc(C5=NCC(C)N5)cc4)c3)cc2)N1 (stereo unspecified),T/C,"dose: 4.5 mg/kg/injection, schedule: Q01DX Z (ip), vehicle: carboxymethylcellulose (CMC)",98 % of control
same,T/C,"dose: 6.8 mg/kg/injection, schedule: Q01DX Z (ip), vehicle: carboxymethylcellulose (CMC)",95 % of control
same,T/C,"dose: 10.2 mg/kg/injection, schedule: Q01DX Z (ip), vehicle: carboxymethylcellulose (CMC)",124 % of control
same,T/C,"dose: 16.4 mg/kg/injection, schedule: Q01DX Z (ip), vehicle: carboxymethylcellulose (CMC)",101 % of control
same,T/C,"dose: 37.0 mg/kg/injection, schedule: Q01DX Z (ip), vehicle: carboxymethylcellulose (CMC)",155 % of control
same,T/C,"dose: 40.0 mg/kg/injection, schedule: Q01DX Z (ip), vehicle: carboxymethylcellulose (CMC)",151 % of control
same,T/C,"dose: 50.0 mg/kg/injection, schedule: Q## X010 (oral), vehicle: saline",97 % of control
same,T/C,"dose: 55.5 mg/kg/injection, schedule: Q01DX Z (ip), vehicle: carboxymethylcellulose (CMC)",113 % of control and 87 % of control
same,T/C,"dose: 100.0 mg/kg/injection, schedule: Q## X010 (oral), vehicle: saline",103 % of control
same,T/C,"dose: 200.0 mg/kg/injection, schedule: Q## X010 (oral), vehicle: saline",96 % of control
Cc1cccc(N=Nc2ccc(O)cc2)c1,T/C,[2],100 % of control
same,T/C,[5],97 % of control
same,T/C,[10],101 % of control
Cc1ccc2cccnc2c1,T/C,[1],93 % of control
same,T/C,[4],93 % of control
same,T/C,[7],86 % of control
CCOC(=O)NC(CCl)NC(=O)OCC,T/C,[22],95 % of control
same,T/C,[23],101 % of control
same,T/C,[24],103 % of control
CCOC(=O)C(O)C(Cl)(c1ccccc1)C(C)C (stereo unspecified),T/C,"dose: 100.0 mg/kg/injection, schedule: Q04DX002 (ip), vehicle: saline",100 % of control
same,T/C,"dose: 200.0 mg/kg/injection, schedule: Q04DX002 (ip), vehicle: saline",114 % of control
same,T/C,"dose: 400.0 mg/kg/injection, schedule: Q04DX002 (ip), vehicle: saline",111 % of control
Cc1cccc(C(=O)NC(=S)Nc2ccccc2)c1,T/C,"dose: 5.0 mg/kg/injection, schedule: Q01DX001 (ip), vehicle: saline",97 % of control
same,T/C,"dose: 10.0 mg/kg/injection, schedule: Q01DX001 (ip), vehicle: saline",103 % of control
same,T/C,"dose: 20.0 mg/kg/injection, schedule: Q01DX001 (ip), vehicle: saline",97 % of control
CC(C)(CCl)c1ccc(C(C)(C)CCl)cc1,T/C,"dose: 50.0 mg/kg/injection, schedule: Q04DX002 (ip), vehicle: Klucel (hydroxypropylcellulose) (HPC)",104 % of control
same,T/C,[3],93 % of control
same,T/C,[6],93 % of control
COc1ccc2[nH]c3cc(Cl)ccc3c(=O)c2c1,T/C,"dose: 100.0 mg/kg/injection, schedule: Q01DX009 (ip), vehicle: saline with Tween-80",91 % of control
same,T/C,"dose: 200.0 mg/kg/injection, schedule: Q01DX009 (ip), vehicle: saline with Tween-80",88 % of control
same,T/C,"dose: 400.0 mg/kg/injection, schedule: Q01DX009 (ip), vehicle: saline with Tween-80",86 % of control
CCOP(=O)(CCCCN1C(=O)c2ccccc2C1=O)OCC,T/C,"dose: 31.3 mg/kg/injection, schedule: Q01DX Z (ip), vehicle: saline",101 % of control
same,T/C,"dose: 62.5 mg/kg/injection, schedule: Q01DX Z (ip), vehicle: saline",100 % of control
same,T/C,"dose: 125.0 mg/kg/injection, schedule: Q01DX Z (ip), vehicle: saline",103 % of control
same,T/C,"dose: 250.0 mg/kg/injection, schedule: Q01DX Z (ip), vehicle: saline",103 % of control
same,T/C,"dose: 500.0 mg/kg/injection, schedule: Q01DX Z (ip), vehicle: saline",92 % of control
